How the values were obtained:
PI3Kg (p110γ) = PI3Kg (p110γ) (Homo sapiens (Human), UniProt P48736); assay: Lipid kinase selectivity panel (Reaction Biology); type: biochemical; conditions: 1 μM compound, single dose duplicates, 10 μM ATP; read-out: Percent inhibition relative to DMSO control, PI3Kg (p110γ)
Method: (§1) The compounds of the present invention were tested in a standard lipid kinase selectivity panel: 16 other lipid kinases (Reaction Biology, Malvern, PA, USA), under conditions of non-disclosure, non-dissemination, and non-use. In brief, compounds (see Table 2) were tested at in single dose duplicates at 1 μM against lipid kinases, including PI3Kα, PI3Kβ, and PI3Kδ, and reactions were carried out at 10 μM ATP.

PI3KC2α = PI3KC2α (Homo sapiens (Human), UniProt O00443); assay: Lipid kinase selectivity panel (Reaction Biology); type: biochemical; conditions: 1 μM compound, single dose duplicates, 10 μM ATP; read-out: Percent inhibition relative to DMSO control, PI3KC2α
Method: as §1

PI3Kb (p110β/p85α) = PI3Kb (p110β/p85α) (Homo sapiens (Human), UniProt P42338); assay: Lipid kinase selectivity panel (Reaction Biology); type: biochemical; conditions: 1 μM compound, single dose duplicates, 10 μM ATP; read-out: Percent inhibition relative to DMSO control, PI3Kb (p110β/p85α)
Method: as §1

PI3K (p110α/p65α) = PI3K (p110α/p65α) (Homo sapiens (Human), UniProt P42336); assay: Lipid kinase selectivity panel (Reaction Biology); type: biochemical; conditions: 1 μM compound, single dose duplicates, 10 μM ATP; read-out: Percent inhibition relative to DMSO control, PI3K (p110α/p65α)
Method: as §1

[1] = biological target: PI3K (p110α (E545K)/p85α) (Homo sapiens (Human), UniProt P42336, E545K); assay: Lipid kinase selectivity panel (Reaction Biology); type: biochemical; conditions: 1 μM compound, single dose duplicates, 10 μM ATP; read-out: Percent inhibition relative to DMSO control, PI3K (p110α (E545K)/p85α)
Method: as §1

PI3Kα (p110α/p85α) = PI3Kα (p110α/p85α) (Homo sapiens (Human), UniProt P42336); assay: Lipid kinase selectivity panel (Reaction Biology); type: biochemical; conditions: 1 μM compound, single dose duplicates, 10 μM ATP; read-out: Percent inhibition relative to DMSO control, PI3Kα (p110α/p85α)
Method: as §1

[2] = biological target: PI3K (p110α (E542K)/p85α) (Homo sapiens (Human), UniProt P42336, E542K); assay: Lipid kinase selectivity panel (Reaction Biology); type: biochemical; conditions: 1 μM compound, single dose duplicates, 10 μM ATP; read-out: Percent inhibition relative to DMSO control, PI3K (p110α (E542K)/p85α)
Method: as §1

[3] = biological target: PI3K (p110α (H1047R)/p85α) (Homo sapiens (Human), UniProt P42336, H1047R); assay: Lipid kinase selectivity panel (Reaction Biology); type: biochemical; conditions: 1 μM compound, single dose duplicates, 10 μM ATP; read-out: Percent inhibition relative to DMSO control, PI3K (p110α (H1047R)/p85α)
Method: as §1

PI3Kd (p110δ/p85α) = PI3Kd (p110δ/p85α) (Homo sapiens (Human), UniProt O00329); assay: Lipid kinase selectivity panel (Reaction Biology); type: biochemical; conditions: 1 μM compound, single dose duplicates, 10 μM ATP; read-out: Percent inhibition relative to DMSO control, PI3Kd (p110δ/p85α)
Method: as §1

VPS34 = VPS34 (Homo sapiens (Human), UniProt Q8NEB9); assay: Biochemical Assay for VPS34 (ADP-Glo kinase activity assay); conditions: 25 nM VPS34, 1 mM ATP, 1-hour incubation at 37° C.; read-out: VPS34 (Inhibition of biochemical activity of VPS34, IC50)
Method: Activity of VPS34 kinase was determined using an ADP-Glo kinase activity assay (Promega Corp). Assays were conducted in 384-well plates (5 μL assay volume) using 25 nM VPS34 (ThermoFisher Scientific), […] PI:3PS Lipid Kinase Substrate (Promega Corp.), and 1 mM ATP in kinase buffer. Inhibition of VPS34 was measured by adding serial diluted test compound (final assay concentration of 0.1% DMSO) followed by a 1-hour incubation at 37° C. ADP-Glo reagent was then added ([…]) followed by a 40 min incubation at rt. Kinase detection reagent was then added ([…]) and followed by a 60 min incubation at rt. Luminescence was then detected. The RLU at each compound concentration of was converted to percent inhibition using controls (i.e., reaction with no test compound and reaction with a known inhibitor) and IC50 values were calculated by fitting a four-parameter sigmoidal curve to the data using GeneData Screener software.
VPS34 Protein Sequence (Full Length with GST Tag)

PI3Kd (p110δ/p85α), sequence (O00329 whole entry, species assumed): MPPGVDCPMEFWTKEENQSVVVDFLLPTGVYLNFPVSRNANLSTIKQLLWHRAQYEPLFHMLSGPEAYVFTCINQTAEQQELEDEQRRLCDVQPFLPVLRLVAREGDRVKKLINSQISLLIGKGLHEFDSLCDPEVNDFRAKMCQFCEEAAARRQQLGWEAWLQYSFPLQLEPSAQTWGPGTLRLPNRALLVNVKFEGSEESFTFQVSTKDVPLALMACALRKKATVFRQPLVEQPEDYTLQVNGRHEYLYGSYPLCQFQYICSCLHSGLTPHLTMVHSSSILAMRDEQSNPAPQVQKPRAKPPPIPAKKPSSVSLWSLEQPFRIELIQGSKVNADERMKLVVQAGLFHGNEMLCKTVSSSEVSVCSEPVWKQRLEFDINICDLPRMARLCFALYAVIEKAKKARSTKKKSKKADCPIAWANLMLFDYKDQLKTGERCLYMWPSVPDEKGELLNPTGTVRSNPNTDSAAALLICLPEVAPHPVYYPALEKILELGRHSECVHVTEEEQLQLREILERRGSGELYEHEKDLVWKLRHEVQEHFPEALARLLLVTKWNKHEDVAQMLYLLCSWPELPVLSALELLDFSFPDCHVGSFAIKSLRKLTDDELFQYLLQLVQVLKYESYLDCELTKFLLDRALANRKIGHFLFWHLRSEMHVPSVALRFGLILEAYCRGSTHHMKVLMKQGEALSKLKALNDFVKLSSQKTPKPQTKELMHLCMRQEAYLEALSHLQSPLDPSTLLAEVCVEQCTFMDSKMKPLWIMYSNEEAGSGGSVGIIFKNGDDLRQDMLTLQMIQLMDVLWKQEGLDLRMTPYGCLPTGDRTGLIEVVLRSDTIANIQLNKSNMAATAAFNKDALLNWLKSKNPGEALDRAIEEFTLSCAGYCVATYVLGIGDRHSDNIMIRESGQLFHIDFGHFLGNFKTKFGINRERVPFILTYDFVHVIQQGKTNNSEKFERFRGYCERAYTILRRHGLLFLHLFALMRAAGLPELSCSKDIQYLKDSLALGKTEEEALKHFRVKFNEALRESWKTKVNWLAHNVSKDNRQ
PI3Kd (p110δ/p85α), sequence (P27986 whole entry partner, species assumed): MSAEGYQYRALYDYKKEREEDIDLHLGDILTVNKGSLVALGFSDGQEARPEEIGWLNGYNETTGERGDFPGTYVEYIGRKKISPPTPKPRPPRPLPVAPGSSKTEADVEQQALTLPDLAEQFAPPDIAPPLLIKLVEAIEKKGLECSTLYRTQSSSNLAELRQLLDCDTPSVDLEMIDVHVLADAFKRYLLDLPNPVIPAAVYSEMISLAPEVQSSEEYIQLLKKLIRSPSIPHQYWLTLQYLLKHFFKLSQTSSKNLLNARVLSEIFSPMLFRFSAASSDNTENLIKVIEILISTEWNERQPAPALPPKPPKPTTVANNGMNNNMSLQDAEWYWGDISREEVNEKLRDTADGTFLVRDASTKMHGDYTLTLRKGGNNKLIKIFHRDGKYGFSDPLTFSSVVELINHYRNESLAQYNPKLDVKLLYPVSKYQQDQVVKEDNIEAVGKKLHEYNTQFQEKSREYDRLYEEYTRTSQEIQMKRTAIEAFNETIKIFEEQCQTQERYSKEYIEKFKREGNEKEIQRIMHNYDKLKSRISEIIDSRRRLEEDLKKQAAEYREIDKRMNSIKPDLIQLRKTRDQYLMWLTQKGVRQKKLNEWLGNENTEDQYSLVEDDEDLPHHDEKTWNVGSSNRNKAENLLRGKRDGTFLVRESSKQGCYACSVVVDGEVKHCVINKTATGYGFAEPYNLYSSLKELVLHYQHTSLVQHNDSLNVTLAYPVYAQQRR
PI3K (p110α/p65α), sequence (P42336 whole entry, species assumed): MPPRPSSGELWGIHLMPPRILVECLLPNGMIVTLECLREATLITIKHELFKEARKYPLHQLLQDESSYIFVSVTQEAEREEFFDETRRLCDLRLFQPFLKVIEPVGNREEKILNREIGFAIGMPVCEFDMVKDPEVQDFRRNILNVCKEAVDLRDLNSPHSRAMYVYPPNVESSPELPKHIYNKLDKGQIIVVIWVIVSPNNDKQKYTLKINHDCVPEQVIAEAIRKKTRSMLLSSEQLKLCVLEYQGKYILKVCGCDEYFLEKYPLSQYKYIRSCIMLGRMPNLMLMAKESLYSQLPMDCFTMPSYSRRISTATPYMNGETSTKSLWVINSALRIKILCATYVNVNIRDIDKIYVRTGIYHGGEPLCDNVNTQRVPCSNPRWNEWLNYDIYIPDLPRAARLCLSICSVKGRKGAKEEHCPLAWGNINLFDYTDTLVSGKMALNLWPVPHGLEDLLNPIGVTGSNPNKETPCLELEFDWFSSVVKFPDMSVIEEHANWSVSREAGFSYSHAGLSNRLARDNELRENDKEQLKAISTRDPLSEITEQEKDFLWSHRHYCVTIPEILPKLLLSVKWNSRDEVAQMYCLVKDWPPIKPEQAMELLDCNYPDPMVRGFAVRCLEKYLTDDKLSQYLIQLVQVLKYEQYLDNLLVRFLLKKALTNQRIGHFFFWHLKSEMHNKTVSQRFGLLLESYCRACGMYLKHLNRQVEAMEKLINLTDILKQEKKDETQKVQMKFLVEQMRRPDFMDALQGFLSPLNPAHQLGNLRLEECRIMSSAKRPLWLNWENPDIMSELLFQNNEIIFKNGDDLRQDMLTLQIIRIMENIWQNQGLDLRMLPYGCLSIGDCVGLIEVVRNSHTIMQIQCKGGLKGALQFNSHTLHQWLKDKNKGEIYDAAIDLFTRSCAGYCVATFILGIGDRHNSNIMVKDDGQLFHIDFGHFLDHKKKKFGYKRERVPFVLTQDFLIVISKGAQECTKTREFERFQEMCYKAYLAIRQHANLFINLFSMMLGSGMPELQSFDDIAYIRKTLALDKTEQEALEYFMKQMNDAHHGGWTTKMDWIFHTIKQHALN
PI3Kα (p110α/p85α), sequence (P42336 whole entry, species assumed): as above
PI3Kα (p110α/p85α), sequence (P27986 whole entry partner, species assumed): as the sequence (P27986 whole entry partner, species assumed) above
PI3K (p110α (E545K)/p85α), sequence (P42336 whole entry E545K): as the sequence (P42336 whole entry, species assumed) above, with E545K counted along it
PI3K (p110α (E545K)/p85α), sequence (P27986 whole entry partner): as the sequence (P27986 whole entry partner, species assumed) above
PI3K (p110α (H1047R)/p85α), sequence (P42336 whole entry H1047R): as the sequence (P42336 whole entry, species assumed) above, with H1047R counted along it
PI3K (p110α (H1047R)/p85α), sequence (P27986 whole entry partner): as the sequence (P27986 whole entry partner, species assumed) above
PI3Kb (p110β/p85α), sequence (P42338 whole entry, species assumed): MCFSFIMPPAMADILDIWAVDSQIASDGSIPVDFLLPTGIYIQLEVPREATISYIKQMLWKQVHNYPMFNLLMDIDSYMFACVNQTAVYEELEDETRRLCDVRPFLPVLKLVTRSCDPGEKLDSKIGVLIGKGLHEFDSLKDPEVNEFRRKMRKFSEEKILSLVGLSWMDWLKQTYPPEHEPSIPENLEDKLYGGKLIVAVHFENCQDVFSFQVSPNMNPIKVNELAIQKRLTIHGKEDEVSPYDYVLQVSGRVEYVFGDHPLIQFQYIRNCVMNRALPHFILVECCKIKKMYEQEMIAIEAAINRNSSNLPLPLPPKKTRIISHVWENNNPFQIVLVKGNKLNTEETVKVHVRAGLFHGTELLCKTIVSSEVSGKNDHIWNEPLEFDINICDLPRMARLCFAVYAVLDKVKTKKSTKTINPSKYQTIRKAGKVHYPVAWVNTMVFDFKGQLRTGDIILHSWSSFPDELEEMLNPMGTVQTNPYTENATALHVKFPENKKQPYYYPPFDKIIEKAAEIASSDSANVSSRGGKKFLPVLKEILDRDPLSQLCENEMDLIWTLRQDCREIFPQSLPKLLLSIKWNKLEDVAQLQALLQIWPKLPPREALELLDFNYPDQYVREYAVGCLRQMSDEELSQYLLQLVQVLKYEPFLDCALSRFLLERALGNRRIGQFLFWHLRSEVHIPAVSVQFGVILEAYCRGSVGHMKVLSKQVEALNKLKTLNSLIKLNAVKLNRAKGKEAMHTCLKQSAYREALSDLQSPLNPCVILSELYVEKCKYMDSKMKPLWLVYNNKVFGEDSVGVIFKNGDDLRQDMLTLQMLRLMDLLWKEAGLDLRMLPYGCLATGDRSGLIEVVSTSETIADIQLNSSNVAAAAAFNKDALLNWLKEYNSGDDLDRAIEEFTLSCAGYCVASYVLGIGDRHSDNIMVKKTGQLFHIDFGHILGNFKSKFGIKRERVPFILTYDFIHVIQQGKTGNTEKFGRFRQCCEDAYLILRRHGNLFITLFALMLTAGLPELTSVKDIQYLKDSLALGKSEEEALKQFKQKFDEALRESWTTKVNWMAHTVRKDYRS
PI3Kb (p110β/p85α), sequence (P27986 whole entry partner, species assumed): as the sequence (P27986 whole entry partner, species assumed) above
PI3K (p110α (E542K)/p85α), sequence (P42336 whole entry E542K): as the sequence (P42336 whole entry, species assumed) above, with E542K counted along it
PI3K (p110α (E542K)/p85α), sequence (P27986 whole entry partner): as the sequence (P27986 whole entry partner, species assumed) above

SMILES | inhibition at 1 µM (PI3Kg (p110γ)) | inhibition at 1 µM (PI3KC2α) | inhibition at 1 µM (PI3Kb (p110β/p85α)) | inhibition at 1 µM (PI3K (p110α/p65α)) | inhibition at 1 µM [1] | inhibition at 1 µM (PI3Kα (p110α/p85α)) | inhibition at 1 µM [2] | inhibition at 1 µM [3] | inhibition at 1 µM (PI3Kd (p110δ/p85α)) | IC50 (VPS34)
CNC(=O)Nc1cc(-c2cc(N3CCCC[C@@H]3C(F)(F)F)[nH]c(=O)c2)c(C)cn1 [Example 10] | -16% | 0% | -12% | -23% | 3% | -3% | 0% | -3% | 1% | 100 to 500 nM
Cc1cnc(NC(=O)CCN2CCCC2)cc1-c1cc(N2CCCC[C@@H]2C(F)(F)F)[nH]c(=O)c1 [Example 26] | -5% | 4% | -10% | -4% | -1% | -2% | -2% | -8% | -5% | 100 to 500 nM
COC(=O)Nc1cc(-c2cc(N3CCCC[C@@H]3C(F)(F)F)[nH]c(=O)c2)c(CF)cn1 [Example 18] | -13% | -18% | -3% | -2% | 2% | -5% | -1% | 16% | 13% | 100 to 500 nM
Cc1cnc(NC(=O)C2CC2)cc1-c1cc(N2CCCC[C@@H]2C(F)(F)F)[nH]c(=O)c1 [Example 17] | 7% | -21% | -10% | -17% | -5% | -15% | -3% | 6% | 14% | ≤ 100 nM
COC(=O)Nc1cc(-c2cc(N3CCCC[C@@H]3C(F)(F)F)[nH]c(=O)c2)c(C)cn1 [Example 1, methyl (R)-(5-methyl-2′-oxo-6′-(2-(trifluoromethyl)piperidin-1-yl)-1′,2′-dihydro-[4,4′-bipyridin]-2-yl)carbamate] | 12% | -1% | 13% | 5% | 15% | 22% | 4% | 10% | 9% | ≤ 100 nM
COC(=O)Nc1cc(-c2cc(-c3cccnc3C(F)(F)F)[nH]c(=O)c2)c(N)cn1 [Example 15] | 16% | -26% | -4% | -12% | -2% | -19% | -11% | 10% | -5% | 100 to 500 nM
COC(=O)Nc1cc(-c2cc(-c3cccnc3C(F)(F)F)[nH]c(=O)c2)c(F)cn1 [Example 5] | 23% | 3% | -6% | 15% | 32% | 17% | 32% | 35% | 58% | 100 to 500 nM
Cc1cnc(NC(=O)CC2CN(C)C2)cc1-c1cc(N2CCCC[C@@H]2C(F)(F)F)[nH]c(=O)c1 [Example 3, (R)-N-(5-methyl-2′-oxo-6′-(2-(trifluoromethyl)piperidin-1-yl)-1′,2′-dihydro-[4,4′-bipyridin]-2-yl)-2-(1-methylazetidin-3-yl)acetamide] |  |  |  |  |  |  |  |  |  | 100 to 500 nM
CC(=O)Nc1cc(-c2cc(-c3cccnc3C(F)(F)F)[nH]c(=O)c2)c(C)cn1 [Example 9] |  |  |  |  |  |  |  |  |  | 100 to 500 nM
Cc1cnc(NC(=O)CC2CN(C)CC2(F)F)cc1-c1cc(N2CCCC[C@@H]2C(F)(F)F)[nH]c(=O)c1 (stereo partly shown) [Example 21] |  |  |  |  |  |  |  |  |  | 500 to 1000 nM
Cc1cnc(NC(=O)OC2CC2)cc1-c1cc(N2CCCC[C@@H]2C(F)(F)F)[nH]c(=O)c1 [Example 30] |  |  |  |  |  |  |  |  |  | 100 to 500 nM
Cc1cnc(Nc2cnn(C)c2)cc1-c1cc(N2CCCC[C@@H]2C(F)(F)F)[nH]c(=O)c1 [Example 29] |  |  |  |  |  |  |  |  |  | 500 to 1000 nM
CNCCC(=O)Nc1cc(-c2cc(N3CCCC[C@@H]3C(F)(F)F)[nH]c(=O)c2)c(C)cn1 [Example 35] |  |  |  |  |  |  |  |  |  | 500 to 1000 nM

Second part, the compound after the results:

inhibition at 1 µM (PI3Kg (p110γ)) | inhibition at 1 µM (PI3KC2α) | inhibition at 1 µM (PI3Kb (p110β/p85α)) | inhibition at 1 µM (PI3K (p110α/p65α)) | inhibition at 1 µM [1] | inhibition at 1 µM (PI3Kα (p110α/p85α)) | inhibition at 1 µM [2] | inhibition at 1 µM [3] | inhibition at 1 µM (PI3Kd (p110δ/p85α)) | IC50 (VPS34) | SMILES
65% | 2% | 11% | 24% | 28% | 30% | 33% | 22% | 17% | ≤ 100 nM | Cc1nccc(Nc2cc(-c3cc(N4CCCC[C@@H]4C(F)(F)F)[nH]c(=O)c3)c(C)cn2)n1 [Example 77]
30% | -3% | 14% | 15% | 12% | 20% | 14% | 8% | 10% | 100 to 500 nM | COC(=O)Nc1cc(-c2cc(-c3cccnc3C(F)(F)F)[nH]c(=O)c2)c(C)cn1 [Example 78]
66% | 4% | 18% | 19% | 24% | 24% | 16% | 23% | 52% | ≤ 100 nM | Cc1nccc(Nc2cc(-c3cc(-c4cccnc4C(F)(F)F)[nH]c(=O)c3)c(C)cn2)n1 [Example 38]
 |  |  |  |  |  |  |  |  | 1000 to 10000 nM | COC(=O)Nc1cc(-c2cc(N3CCN(C(=O)CCN(C)C)C[C@@H]3C)[nH]c(=O)c2)c(C)cn1 [Example 63]
 |  |  |  |  |  |  |  |  | ≤ 100 nM | COC(=O)Nc1cc(-c2cc(N3CCOC[C@@H]3C(F)(F)F)[nH]c(=O)c2)c(C)cn1 [Example 37]
 |  |  |  |  |  |  |  |  | 100 to 500 nM | Cc1cnc(NC(=O)C2CC2)cc1-c1cc(-c2cnccc2C(F)(F)F)[nH]c(=O)c1 [Example 48]
 |  |  |  |  |  |  |  |  | 100 to 500 nM | COC(=O)Nc1cc(-c2cc(-c3ccncc3C(F)(F)F)[nH]c(=O)c2)c(C)cn1 [Example 79]
 |  |  |  |  |  |  |  |  | 500 to 1000 nM | Cc1cnc(NC(=O)C2CC2)cc1-c1cc(N2CCN(C(=O)c3cnn(C)c3)C[C@@H]2C)[nH]c(=O)c1 [Example 89]
 |  |  |  |  |  |  |  |  | 500 to 1000 nM | Cc1cnc(NC(=O)c2cn[nH]c2)cc1-c1cc(N2CCCC[C@@H]2C(F)(F)F)[nH]c(=O)c1 [Example 47]
 |  |  |  |  |  |  |  |  | 100 to 500 nM | COc1ccc(S(=O)(=O)N2CCN(c3cc(-c4cc(NC(=O)C5CC5)ncc4C)cc(=O)[nH]3)[C@@H](C)C2)cc1 [Example 87]
 |  |  |  |  |  |  |  |  | 1000 to 10000 nM | Cc1cnc(Nc2cnn(CCN(C)C)c2)cc1-c1cc(N2CCCC[C@@H]2C(F)(F)F)[nH]c(=O)c1 [Example 69]
 |  |  |  |  |  |  |  |  | 100 to 500 nM | CCS(=O)(=O)N1CCN(c2cc(-c3cc(NC(=O)C4CC4)ncc3C)cc(=O)[nH]2)[C@@H](C)C1 [Example 76]
 |  |  |  |  |  |  |  |  | ≤ 100 nM | Cc1ccc(Nc2cc(-c3cc(N4CCCC[C@@H]4C(F)(F)F)[nH]c(=O)c3)c(C)cn2)nn1 [Example 44]
 |  |  |  |  |  |  |  |  | 1000 to 10000 nM | Cc1cnc(NC(=O)[C@H]2CCN(C)C2)cc1-c1cc(N2CCCC[C@@H]2C(F)(F)F)[nH]c(=O)c1 [Example 57]
 |  |  |  |  |  |  |  |  | 100 to 500 nM | COCCS(=O)(=O)N1CCN(c2cc(-c3cc(NC(=O)C4CC4)ncc3C)cc(=O)[nH]2)[C@@H](C)C1 [Example 83]

— US20250236609A1, “VPS34 INHIBITORS AND METHODS OF USE THEREOF” (Deciphera Pharmaceuticals, LLC, priority 2023, published 2025)
